Test results published in US20150038435A1, “N-TERMINALLY MODIFIED OLIGOPEPTIDES AND USES THEREOF” (Novo Nordisk A/S, priority 2012, published 2015).
“And” between values parts separate entries of the source, which are not always exact repeats. Equal values may be shown once. Non-standard residues stand in square brackets, D forms with d. Residues, ends and D or L forms follow the SMILES beside them. *: point of attachment. Lauroyl = CCCCCCCCCCCC(=O)*

What was measured:
Format in all cases: biochemical
Chymotrypsin [1] = test: Inhibition of insulin degradation, HPLC assay (Example 201); details: for Ki: substrate A14E, B25H, B29K(N(eps)Octadecanedioyl-γGlu-OEG-OEG), desB30 human insulin
Method: Degradation using duodenum lumen enzymes (prepared by filtration of duodenum lumen content) from SPD rats.
Each HPLC vial contained Dulbecco's phosphate buffer saline (DPBS, Invitrogen catalogue #14190-094), A14E, B25H, B29K(N(eps)Octadecanedioyl-γGlu-OEG-OEG), desB30 human insulin, N-terminally acylated peptide or oligopeptide of the invention and enzyme (chymotrypsin, trypsin, elastase or duodenum lumen enzymes).
The assay was performed in an HPLC autosampler equilibrated at 37° C., at specified time points, aliquots were injected directly onto an HPLC column and the amount of the intact A14E, B25H, B29K(N(eps)Octadecanedioyl-γGlu-OEG-OEG), desB30 human insulin was determined. Degradation half life was determined by exponential fitting of the data (for example, single exponential decay, 2 parameters, Sigma Plot version 11, Systat Software) and normalized to half time determined for the reference insulins, or human insulin in each assay. […] This was done by plotting the half life achieved with different concentrations of the N-terminally acylated peptide or oligopeptides of the invention as a function of their concentrations and fitting the experimental results using, for example, sigmoidal logistic regression (2 parameters, Sigma Plot v 11). Inhibition constants for the interaction between the N-terminally acylated peptide or oligopeptides of the invention and proteolytic enzymes were also obtained by performing the assay described above with varying concentrations of the inhibitor and substrate and analyzing the results, for example, by double reciprocal transformation as known to the person skilled in the art and described for example in Hubalek, F. et al., J. Med. Chem. 47, 1760-1766 (2004). Other algorithms known to the person skilled in the art may also be used to determine inhibition constants from the results.

Chymotrypsin [2] = test: Inhibition of enzymatic degradation of a chromogenic substrate (Example 202); details: substrate N-succinyl-Ala-Ala-Pro-Phe-p-Nitroanilide
From the text: The use of chromogenic substrates to monitor activity of proteolytic enzymes is known in the field (for example DelMar, E. G., et al., Anal. Biochem., 99, 316-320, (1979)). For example, N-succinyl-Ala-Ala-Pro-Phe-p-Nitroanilide is commonly used substrate for measuring chymotrypsin activity. Enzymatic cleavage of 4-nitroanilide substrates yields 4-nitroaniline (yellow color under alkaline conditions).
An assay following the increase in absorbance at 395 nm as a function of time was established in 96 well format using Varioskan Flash Multimode Meter (Thermo Scientific). Each well contained 70 μl of Dulbecco's phosphate buffer saline (Invitrogen catalogue #14190-094), 10 μl of N-succinyl-Ala-Ala-Pro-Phe-p-Nitroanilide (Sigma cat# S 7388) in DMSO (different concentrations were used in order to obtain the inhibition constant), 10 μl of N-terminally acylated peptide or oligopeptide of the invention in varying concentration and 10 μl of a stock solution of an enzyme (chymotrypsin, trypsin, elastase, etc.). The incubations were performed at 37° C. Absorbance at 395 nm was measured immediately after addition of the enzyme to the 96 well plate and also every minute for the next 80 minutes. The concentration of the enzyme was optimized to allow determination of slopes for the time course of initial absorbance increase with and without added inhibitors. The slopes were determined by linear regression of the linear part of the fluorescence trace (for example, the first 10 min of the reaction). Each assay was performed in duplicate and average of the two traces was included in the calculations. The relative effect of N-terminally acylated peptide or oligopeptides of the invention on enzymatic degradation of N-succinyl-Ala-Ala-Pro-Phe-p-Nitroanilide was obtained by comparison of the slopes achieved by the same concentration of the N-terminally acylated peptide or oligopeptides. […] This was done by plotting the slopes achieved with different concentrations of the N-terminally acylated peptide or oligopeptides of the invention as a function of their concentrations and fitting the experimental results using, for example, sigmoidal logistic regression (2 parameters, Sigma Plot v 11). Inhibition constants for the interaction between the N-terminally acylated peptide or oligopeptides of the invention and proteolytic enzymes were also obtained by performing the assay described above with varying concentrations of the inhibitor and substrate and analyzing the results, for example, by double reciprocal transformation as known to the person skilled in the art and described for example in Hubalek, F. et al., J. Med. Chem. 47, 1760-1766 (2004).

GI juice = test: Inhibition of GI juice degradation of insulin analogue and GLP-1 analogue; details: compound 1 mM, rat GI juice
Method: 96 well plates were coated by incubating with 0.4% Bovine serum albumin (BSA) solution for minimum of 60 min. […] 1% TFA), 30 μl of a substrate (100 μM insulin analogue or GLP-1 analogue in buffer) and 30 μl of N-terminally acylated peptide or oligopeptide of the invention (10 mM) were added. The plates were pre-incubated (before adding GI juice) for 60 min at 37° C. After addition of 30 μl of GI juice (10-times diluted in buffer), the plates were incubated for 60 min/37° C. on shaker. […] 1% TFA and spun down in plates (4500 rpm for 10 min). Samples were diluted 5 times with the buffer prior to LC-MS analysis. Standard samples (0.1, 0.5, 1.0, 5.0, 10.0 μM) were prepared and treated as the samples. Standard curve was analysed both at the beginning and the end of the sequence. Two replicates of each tested conditions were included. Ion suppression was assessed by analyzing a standard at 1 μM and at 10 μM with 1 mM inhibitor present. Intact insulin or GLP-1 analoues were determined at each sample. The results were plotted against the incubation time. […] The half-lives were expressed relative to the half-live of the insulin or GLP-1 analogue without inhibitor present by dividing the half-lives obtained in the presence of inhibitor with those obtained in the absence of inhibitors. GI juice was prepared from male Sprague Dawley rats (200-250 g) by excising approximately 20 cm piece of mid jejunum and rinsing the inside with 2.5 ml 0.9% sodium chloride solution. The sodium chloride solution was collected in a centrifuge tube, pooled from all rats (20) and centrifuged at 4500 rpm./10 min/4° C. The supernatant was aliquoted in tubes and stored at −80° C.
A14E, B25H, B29K(N(eps)Octadecanedioyl-γGlu-OEG-OEG), desB30 human insulin and N-epsilon26-[2-(2-{2-[2-(2-{2-[(S)-4-Carboxy-4-(17-carboxyheptadecanoylamino)-butyrylamino]ethoxy}ethoxy)acetylamino]ethoxy}ethoxy)acetyl][Aib8,Arg34]GLP-1-(7-37) were used as standards in this assay.
For experiments repeated more than two times, standard deviation is given

Row | kind of enzyme inhibition (Chymotrypsin [1]; chymotrypsin, insulin analogue as substrate) | Ki (Chymotrypsin [1]; chymotrypsin) [µM] | Ki (Chymotrypsin [1]) [µM] | Ki (Chymotrypsin [2]; chymotrypsin) | kind of enzyme inhibition (Chymotrypsin [2]; chymotrypsin) | Ki (Chymotrypsin [2]) [µM] | Compound | Half Life fold increase (over solution w/o N-terminally acylated (oligo)peptide) (GI juice) | Half Life of insulin analogue (GI juice; 37° C.) [min]
1 | mixed inhibition | ~15 | 15 | ~130 µM and ~150 µM | competitive inhibition | 130 | CCCCCCCCCCCC(=O)N[C@@H](C)C(=O)N[C@@H](C)C(=O)N1CCC[C@H]1C(=O)N[C@@H](Cc1ccccc1)C(=O)O [Example 34, N-dodecanoyl-Ala-Ala-Pro-Phe-OH] (Lauroyl-AAPF-OH) | – | –
2 | – | – | – | – | – | – | CCCCCCCCCCCC(=O)N[C@H](C)C(=O)N[C@H](C)C(=O)N1CCC[C@@H]1C(=O)N[C@H](Cc1ccccc1)C(=O)O [Example 1, N-dodecanoyl-DAla-DAla-DPro-DPhe-OH] (Lauroyl-[dA][dA][dP][dF]-OH) | 5.0 | 13.0
